For this test, the target named is T1, LdtR (Candidatus Liberibacter asiaticus, UniProt A0ABN4AZS1).
T1 construct: gene WSI_01095
Type of test: binding. The settings on record: promoters of CLIBASIA_02120 and CLIBASIA_03520; pH 7.2, 150 mM KCl, 10 mM MgCl2, 37 °C.

Turning to `CCc1oc2ccccc2c1C(=O)c1cc(Br)c(O)c(Br)c1` [benzbromarone], the “EMSA, disruption of LdtR binding to promoter DNA” value was “benzbromarone and phloretin disrupted the binding of LdtR to both promoters (Fig. S2)”.
Turning to `O=C(CCc1ccc(O)cc1)c1c(O)cc(O)cc1O` [phloretin], the “EMSA, disruption of LdtR binding to promoter DNA” value is “benzbromarone and phloretin disrupted the binding of LdtR to both promoters (Fig. S2)”.

These data come from PMC5481520 (Microbial Biotechnology, 2017).
